Patent US10442796B2, “2,3,5-substituted thiophene compound as protein kinase inhibitor” (KOREA INSTITUTE OF SCIENCE AND TECHNOLOGY, priority 2016, dated 2019)

Legend:
[1] = system: FLT3-ITD-F691L-D835Y Ba/F3 cells; test: In vivo bioluminescent efficacy study in mouse AML model; settings: for T/C, reduction of luminescence: compared with AC220-treated and vehicle control mice
Description: (§1) Nude mice (5-6 weeks old)(Orient) were purchased and used after a week. Mice were anesthetized following IACUC approved animal protocol. FLT3-ITD F691L-D835Y, luc+ Ba/F3 cell (Established in-house) suspension (in 0.1 mL RPMI1640 (Welgene) of 1.0×10^6 cells) was injected into tail vein intravenously using a 29-G needle, and an tail mark was added to each animal for identification. After 6 days, the luminescence intensity was measured using IVIS (Perkin Elmer) to calculate the ROI intensity. Once ROI intensity reaches the study-desired minimum intensity (usually 2×106), mice were randomized into different treatment groups based on signal intensity.
(§2) Each compound was dissolved in NMP at 20× final concentration and diluted to 1× with the remaining vehicle components (vehicle: 5% NMP, 15% solutol (Sigma-aldrich), 30% PEG400 (Sigma-aldrich), 50% 0.05M citric acid (Sigma-aldrich)). Each compound solution was prepared freshly just before administration. Compounds were administered orally using a mouse sondae once a day, 0.1 mL per mouse. Mice were humanely euthanized if animals experience 20% body weight loss.
(§3) D-Luciferin (Promega) was dissolved in DPBS (Welgene) (without Ca2+ and Mg2+) at 15 mg/mL, and the stock solution was prepared after filtration using 0.22 μm syringe filters (BD). Luciferin solution (150 mg/kg in DPBS) was injected intraperitoneally into each mouse (200 μL/mouse). After 5 min, mice were anesthetized for 5 min using isoflurane (JW Pharma). Luminescence signal was read using IVIS200 (exposure time: auto, binning: 8, F/stop: 1). Signal intensity and body weights were measured every 3 days to monitor the ROI intensity and treatment-induced body weight loss. […] Data was analyzed using Living Image software (Caliper, PerkinElmer).
(§4) Statistical analysis of luminescence signal intensity, mouse body weight, and spleen/body weight ratio were evaluated using two-way ANOVA. Differences were considered statistically significant at p<0.005.

[2] = Body weight change during bioluminescent in vivo efficacy study; design: species or system mouse; settings: po, qd
Description: as §2, §3, §4

[3] = system: FLT3-ITD-F691L-D835Y Ba/F3 cells; test: Spleen size in mouse AML model; assay type: in vivo; settings: 15, 30 mg/kg; after drug administration for 9 days
Description: as §1
Each compound was dissolved in NMP at 20× final concentration and diluted to 1× with the remaining vehicle components (vehicle: 5% NMP, 15% solutol (Sigma-aldrich), 30% PEG400 (Sigma-aldrich), 50% 0.05M citric acid (Sigma-aldrich)). Each compound solution was prepared freshly just before administration. […]
Mice were then euthanized by cervical dislocation while they were still under isoflurane anesthesia. The spleens from the mice were isolated and weighted, and spleen weight index was calculated as organ weight (mg) per gram of mouse body weight. […]
Statistical analysis of luminescence signal intensity, mouse body weight, and spleen/body weight ratio were evaluated using two-way ANOVA. […]

BUB1 = BUB1 (Homo sapiens, UniProt O43683); test: Kinase inhibitory activity, full kinase panel; assay type: biochemical; settings: single concentration of 1 μM, read-out: %Inhibitory ability
Description: (§5) In order to measure inhibitory activity (% inhibitory ability) against a protein kinase with respect to the compound of the present invention, a biochemical assay was performed in a full kinase panel shown in the following Table 1. As an experimental compound, the (S)-5-((3-fluorophenyl)ethynyl)-N-(piperidin-3-yl)-3-ureidothiophene-2-carboxamide synthesized in Example 24 was used.

CSK = CSK (Homo sapiens, UniProt P41240); test: Kinase inhibitory activity, full kinase panel; assay type: biochemical; settings: single concentration of 1 μM, read-out: %Inhibitory ability
Description: as §5

MAP4K3 = MAP4K3 (Homo sapiens, UniProt Q8IVH8); test: Kinase inhibitory activity, full kinase panel; assay type: biochemical; settings: single concentration of 1 μM, read-out: %Inhibitory ability
Description: as §5

PIP5K2B = PIP5K2B (Homo sapiens, UniProt P78356); test: Kinase inhibitory activity, full kinase panel; assay type: biochemical; settings: single concentration of 1 μM, read-out: %Inhibitory ability
Description: as §5

SIK = SIK (Homo sapiens, UniProt P57059); test: Kinase inhibitory activity, full kinase panel; assay type: biochemical; settings: single concentration of 1 μM, read-out: %Inhibitory ability
Description: as §5

TXK = TXK (Homo sapiens, UniProt P42681); test: Kinase inhibitory activity, full kinase panel; assay type: biochemical; settings: single concentration of 1 μM, read-out: %Inhibitory ability
Description: as §5

Chain of PIP5K2B (P78356 whole entry): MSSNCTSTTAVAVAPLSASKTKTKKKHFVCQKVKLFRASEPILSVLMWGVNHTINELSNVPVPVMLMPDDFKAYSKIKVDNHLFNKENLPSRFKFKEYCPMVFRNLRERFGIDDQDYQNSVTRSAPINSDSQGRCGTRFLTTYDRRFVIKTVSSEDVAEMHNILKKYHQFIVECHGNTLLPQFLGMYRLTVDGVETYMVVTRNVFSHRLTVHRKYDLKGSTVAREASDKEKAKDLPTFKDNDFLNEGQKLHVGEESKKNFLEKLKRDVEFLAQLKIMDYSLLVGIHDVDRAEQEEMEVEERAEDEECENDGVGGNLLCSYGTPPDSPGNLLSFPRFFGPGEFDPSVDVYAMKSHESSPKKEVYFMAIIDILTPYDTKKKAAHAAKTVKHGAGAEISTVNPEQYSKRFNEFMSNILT
Chain of TXK (P42681 whole entry, species assumed): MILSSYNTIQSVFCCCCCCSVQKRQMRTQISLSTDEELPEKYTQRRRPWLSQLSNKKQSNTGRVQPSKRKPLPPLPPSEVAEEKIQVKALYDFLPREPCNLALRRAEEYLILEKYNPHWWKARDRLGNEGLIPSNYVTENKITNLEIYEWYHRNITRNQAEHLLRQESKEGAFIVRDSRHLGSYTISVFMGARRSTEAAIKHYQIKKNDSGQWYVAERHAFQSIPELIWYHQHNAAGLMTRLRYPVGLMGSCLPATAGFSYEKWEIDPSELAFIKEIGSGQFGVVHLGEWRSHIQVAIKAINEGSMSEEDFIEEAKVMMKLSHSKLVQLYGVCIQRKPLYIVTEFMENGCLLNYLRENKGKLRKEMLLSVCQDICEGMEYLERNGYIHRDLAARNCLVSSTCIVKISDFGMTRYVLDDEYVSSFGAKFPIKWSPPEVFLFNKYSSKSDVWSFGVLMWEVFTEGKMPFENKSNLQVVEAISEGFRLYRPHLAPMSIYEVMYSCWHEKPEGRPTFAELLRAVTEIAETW
Chain of MAP4K3 (Q8IVH8 whole entry, species assumed): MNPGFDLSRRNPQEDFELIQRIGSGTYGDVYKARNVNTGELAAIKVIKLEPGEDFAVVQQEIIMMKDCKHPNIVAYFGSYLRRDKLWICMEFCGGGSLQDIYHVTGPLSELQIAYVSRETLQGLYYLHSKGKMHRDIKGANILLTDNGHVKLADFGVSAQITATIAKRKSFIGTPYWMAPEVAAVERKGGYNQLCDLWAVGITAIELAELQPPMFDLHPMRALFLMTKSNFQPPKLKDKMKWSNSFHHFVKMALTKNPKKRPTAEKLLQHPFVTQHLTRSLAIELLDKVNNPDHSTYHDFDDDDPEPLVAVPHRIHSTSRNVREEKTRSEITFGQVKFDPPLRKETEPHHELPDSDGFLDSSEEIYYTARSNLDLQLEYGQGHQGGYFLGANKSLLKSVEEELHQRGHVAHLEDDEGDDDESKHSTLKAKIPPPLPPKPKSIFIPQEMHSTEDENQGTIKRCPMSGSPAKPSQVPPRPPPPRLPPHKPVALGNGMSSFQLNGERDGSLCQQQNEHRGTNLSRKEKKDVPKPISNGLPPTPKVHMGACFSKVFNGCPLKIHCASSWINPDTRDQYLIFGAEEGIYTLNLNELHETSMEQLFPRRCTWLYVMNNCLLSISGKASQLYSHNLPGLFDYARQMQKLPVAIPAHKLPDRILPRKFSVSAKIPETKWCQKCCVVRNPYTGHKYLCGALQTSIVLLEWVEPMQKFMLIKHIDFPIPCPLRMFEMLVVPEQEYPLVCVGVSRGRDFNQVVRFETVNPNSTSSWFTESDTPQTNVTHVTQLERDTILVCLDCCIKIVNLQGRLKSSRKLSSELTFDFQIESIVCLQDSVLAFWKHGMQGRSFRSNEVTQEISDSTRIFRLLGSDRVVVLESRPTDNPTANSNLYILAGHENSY
Chain of SIK (P57059 whole entry): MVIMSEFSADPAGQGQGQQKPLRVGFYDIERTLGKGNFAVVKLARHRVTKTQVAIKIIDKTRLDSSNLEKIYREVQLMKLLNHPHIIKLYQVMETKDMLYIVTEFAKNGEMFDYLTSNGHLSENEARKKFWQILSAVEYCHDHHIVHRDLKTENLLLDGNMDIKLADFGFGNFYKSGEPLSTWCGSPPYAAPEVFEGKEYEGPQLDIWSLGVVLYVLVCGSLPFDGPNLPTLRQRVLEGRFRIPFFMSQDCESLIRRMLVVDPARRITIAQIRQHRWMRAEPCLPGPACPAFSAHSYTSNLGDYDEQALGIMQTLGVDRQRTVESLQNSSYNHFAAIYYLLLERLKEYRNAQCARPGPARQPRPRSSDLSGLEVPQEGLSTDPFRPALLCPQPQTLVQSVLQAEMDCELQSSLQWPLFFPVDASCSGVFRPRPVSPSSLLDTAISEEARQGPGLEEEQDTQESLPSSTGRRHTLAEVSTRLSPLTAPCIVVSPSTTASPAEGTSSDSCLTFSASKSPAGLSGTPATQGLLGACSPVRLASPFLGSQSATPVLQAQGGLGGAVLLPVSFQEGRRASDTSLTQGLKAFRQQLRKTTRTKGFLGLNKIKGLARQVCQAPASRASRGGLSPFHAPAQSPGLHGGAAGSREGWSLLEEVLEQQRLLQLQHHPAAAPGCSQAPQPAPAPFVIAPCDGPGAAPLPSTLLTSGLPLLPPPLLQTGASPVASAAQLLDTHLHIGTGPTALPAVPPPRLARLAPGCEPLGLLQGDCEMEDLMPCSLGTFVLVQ
Chain of BUB1 (O43683 whole entry, species assumed): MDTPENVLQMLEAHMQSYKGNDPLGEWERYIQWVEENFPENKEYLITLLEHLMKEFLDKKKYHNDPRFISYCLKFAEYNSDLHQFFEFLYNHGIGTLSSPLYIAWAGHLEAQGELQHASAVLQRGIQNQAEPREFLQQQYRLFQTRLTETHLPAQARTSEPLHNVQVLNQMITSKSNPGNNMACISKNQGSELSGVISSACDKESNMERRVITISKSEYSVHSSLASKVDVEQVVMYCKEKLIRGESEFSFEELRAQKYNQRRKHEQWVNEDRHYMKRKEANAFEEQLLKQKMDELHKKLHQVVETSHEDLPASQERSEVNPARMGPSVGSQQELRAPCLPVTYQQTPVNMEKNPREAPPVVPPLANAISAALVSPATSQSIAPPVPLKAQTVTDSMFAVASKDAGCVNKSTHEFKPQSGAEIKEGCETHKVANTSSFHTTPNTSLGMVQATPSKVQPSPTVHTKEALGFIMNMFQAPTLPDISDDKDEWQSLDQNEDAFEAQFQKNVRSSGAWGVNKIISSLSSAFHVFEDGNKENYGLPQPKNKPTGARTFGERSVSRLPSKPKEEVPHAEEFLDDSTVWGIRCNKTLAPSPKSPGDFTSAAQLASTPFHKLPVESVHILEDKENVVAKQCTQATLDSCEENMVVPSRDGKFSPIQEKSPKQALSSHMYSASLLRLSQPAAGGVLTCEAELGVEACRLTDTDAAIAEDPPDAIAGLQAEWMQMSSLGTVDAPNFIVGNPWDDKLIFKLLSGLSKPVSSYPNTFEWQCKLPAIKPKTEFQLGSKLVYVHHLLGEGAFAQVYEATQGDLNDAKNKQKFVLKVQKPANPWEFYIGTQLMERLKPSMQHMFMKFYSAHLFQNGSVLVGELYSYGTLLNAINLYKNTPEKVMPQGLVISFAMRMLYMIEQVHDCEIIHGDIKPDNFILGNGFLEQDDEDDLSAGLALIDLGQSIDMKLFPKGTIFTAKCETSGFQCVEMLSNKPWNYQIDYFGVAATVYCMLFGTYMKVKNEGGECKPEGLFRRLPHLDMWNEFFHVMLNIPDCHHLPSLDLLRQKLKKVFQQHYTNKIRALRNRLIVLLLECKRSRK

Row | inhibition at 1 µM (BUB1) [%] | inhibition at 1 µM (CSK) [%] | inhibition at 1 µM (MAP4K3) [%] | inhibition at 1 µM (PIP5K2B) [%] | inhibition at 1 µM (SIK) [%] | inhibition at 1 µM (TXK) [%] | SMILES | T/C, reduction of luminescence ([1]; 15 mg/kg orally once per day) [%] | T/C, reduction of luminescence ([1]; 30 mg/kg orally once per day) [%] | tumor inhibition at low dosages (luminescence) ([1]; 2, 4, 7, 10 mg/kg, po, qd) | mouse body weight [2] | spleen size (spleen weight over mouse body weight) [3]
1 | – | – | – | – | – | – | NC(=O)Nc1cc(C#Cc2cccc(F)c2)sc1C(=O)N[C@H]1CCCNC1 [Example 22, (S)-5-((3-fluorophenyl)ethynyl)-N-(piperidin-3-yl)-3-ureidothiophene-2-carboxamide] | 84.2 | 88.7 | dose-dependent tumor inhibition in vivo from a dosage of 2 mg/kg | did not alter the mouse body weight | reduced to the disease free spleen size
2 | 97.4 | 92.1 | 69 | 74 | 80 | 83 | Cc1ccc(C#Cc2cc(NC(N)=O)c(C(=O)N[C@H]3CCCNC3)s2)cc1 [Example 24, (S)—N-(piperidin-3-yl)-5-(p-tolylethynyl)-3-ureidothiophene-2-carboxamide] | – | – | – | – | –
